According to patent US11999794B2, “Human mesothelin chimeric antigen receptors and uses thereof” (Novartis AG, priority 2013, dated 2024):
Like-named read-outs stand apart in the source and are kept apart here. Marks after values point to notes of the source that are not given here.

Tests used:
[1] = tested on: A/H1N1 strain A/New Jersey/8/76 and A/H3N2 strain A/Victoria/361/11; design: species or system human; settings: in vivo
B/Brisbane/60/2008 = experiment: Hemagglutination inhibition titers and seroconversion; type: in vivo, human; settings: for Percent of subjects with seroconversion to influenza 4 weeks after vaccination: B; for GMT ratio, B: GMT at week 4 post vaccination/GMT at baseline
Protocol: (§1) The trial was observer-blind because the placebo in the RAD001 0.5 mg daily and 20 mg weekly cohorts differed slightly from the RAD001 tablets in those cohorts. […] The treatment duration for all cohorts was 6 weeks during which time subjects underwent safety evaluations in the clinic every 2 weeks. After subjects had been dosed for 4 weeks, RAD001 steady state levels were measured pre-dose and at one hour post dose. After completing the 6 week course of study drug, subjects were given a 2 week drug free break to reverse any possible RAD001-induced immunosuppression, and then were given a 2012 seasonal influenza vaccination (Agrippal®, Novartis Vaccines and Diagnostics, Siena, Italy) containing the strains H1N1 A/California/07/2009, H3N2 A/Victoria/210/2009, B/Brisbane/60/2008. Four weeks after influenza vaccination, subjects had serum collected for influenza titer measurements. Antibody titers to the 3 influenza vaccine strains as well as to 2 heterologous strains (A/H1N1 strain A/New Jersey/8/76 and A/H3N2 strain A/Victoria/361/11) were measured by standard hemagglutination inhibition assay (Kendal, A P et al. (1982) Concepts and procedures for laboratory-based influenza surveillance. Atlanta: Centers for Disease Control and Prevention B17-B35). Levels of IgG and IgM specific for the A/H1N1/California/07/2009 were measured in serum samples taken before and 4 weeks after influenza vaccination as described previously (Spensieri, F. et al. (2013) Proc. Natl. Acad. Sci. USA 110:14330-14335). Results were expressed as fluorescence intensity.
(§2) The ability of RAD001 to improve immune function in elderly volunteers was evaluated by measuring the serologic response to the 2012 seasonal influenza vaccine. The hemagglutination inhibition (HI) geometric mean titers (GMT) to each of the 3 influenza vaccine strains at baseline and 4 weeks after influenza vaccination are provided in Table 10. The primary analysis variable was the HI GMT ratio (4 weeks post vaccination/baseline). […] This endpoint was chosen because a 1.2-fold increase in the influenza GMT ratio induced by the MF-59 vaccine adjuvant was associated with a decrease in influenza illness (Iob, A et al. (2005) Epidemiol Infect 133:687-693).
(§3) Rates of seroconversion 4 weeks after influenza vaccination were also evaluated. Seroconversion was defined as the change from a negative pre-vaccination titer (i.e., HI titer <1:10) to post-vaccination HI titer ≥1:40 or at least 4-fold increase from a non-negative (≥1:10) pre-vaccination HI titer.

H3N2 A/Victoria/210/2009 = experiment: as above; type: in vivo, human; settings: for Percent of subjects with seroconversion to influenza 4 weeks after vaccination: H3N2; for GMT ratio, A/H3N2: GMT at week 4 post vaccination/GMT at baseline
Protocol: as §1, §2, §3

[2] = tested on: H1N1 A/California/07/2009; experiment: as above; type: in vivo, human; settings: for Percent of subjects with seroconversion to influenza 4 weeks after vaccination: H1N1; for GMT ratio, A/H1N1: GMT at week 4 post vaccination/GMT at baseline
Protocol: as §1, §2, §3

PD-1 = experiment: Immunophenotyping of PBMC (FACS); type: in vivo, human; settings: for decrease in PD-1 positive CD4 T cells compared to placebo / decrease in PD-1 positive CD8 T cells compared to placebo: adjusted for baseline
[3] = Questionnaires on energy and exercise one year after dosing; type: in vivo, human; settings: 0.5 mg daily cohort
[4] = tested on: H1N1 A/California/07/2009, H3N2 A/Victoria/210/2009, B/Brisbane/60/2008; experiment: Serologic response to 2012 seasonal influenza vaccine (HI GMT ratio, primary endpoint); type: in vivo, human; settings: for primary endpoint (≥1.2-fold GMT increase relative to placebo in 2 of 3 strains): ITT population
Protocol: From December 2011 to April 2012, 218 elderly volunteers were enrolled in a randomized, observer-blind, placebo-controlled trial. The subjects were randomized to treatment arms using a validated automated randomization system with a ratio of RAD001 to placebo of 5:2 in each treatment arm. The treatment arms were: • RAD001 0.5 mg daily or placebo • RAD001 5 mg weekly or placebo • RAD001 20 mg weekly or placebo
as §1
The primary analysis of geometric mean titer ratios was done using a normal Bayesian regression model with non-informative priors. This model was fitted to each antibody titer on the log scale. The primary outcome in each model was the Day 84 measurement. The Day 63 measurement was included in the outcome vector. The model fitted using SAS 9.2 proc mixed with the prior statement. The covariance structure of the matrix was considered as unstructured (option type=UN). A flat prior was used. For the secondary analysis of seroconversion rates, logistic regression was used.
The ability of RAD001 to improve immune function in elderly volunteers was evaluated by measuring the serologic response to the 2012 seasonal influenza vaccine. […]

[5] = cited from earlier work
[6] = Size exclusion chromatography (oligomerization state of expressed scFvs); type: physicochemical; settings: purified scFv
Protocol: Size exclusion chromatography was performed to determine the oligomerization states of the expressed scFvs. 25 μg each was injected onto a TSKGel Super SW3000 4.6 mm×300 mm column (Tosoh Bioscience) heated to 35° C. The scFvs were eluted at 0.3 mL/min in 750 mM arginine, 1 mM EDTA, 20 mM sodium phosphate, 250 mM sodium chloride, pH 7.2; the UV absorbance was monitored at 280 nm.

[7] = Intention to Treat Population, 0.5 mg, N = 48
[8] = Intention to Treat Population, 5 mg, N = 49
[9] = Intention to Treat Population, 20 mg, N = 48
[10] = Subjects with Baseline Titers <=40, 0.5 mg
[11] = Subjects with Baseline Titers <=40, 5 mg
[12] = Subjects with Baseline Titers <=40, 20 mg

Molecule: CO[C@H]1C[C@@H]2CC[C@@H](C)[C@@](O)(O2)C(=O)C(=O)N2CCCC[C@H]2C(=O)O[C@H]([C@H](C)C[C@@H]2CC[C@@H](OCCO)[C@H](OC)C2)CC(=O)[C@H](C)/C=C(\C)[C@@H](O)[C@@H](OC)C(=O)[C@H](C)C[C@H](C)/C=C/C=C/C=C/1C [RAD001, (1R,9S,12S,15R,16E,18R,19R,21R,23 S,24E,26E,28E,30S,32S,35R)-1,18-dihydroxy-12-{(1R)-2-[(1 S,3R,4R)-4-(2-hydroxyethoxy)-3-methoxycyclohexyl]-1-methylethyl}-19,30-dimethoxy-15,17,21,23,29,35-hexamethyl-11,36-dioxa-4-aza-tricyclo[30.3.1.04,9]hexatriaconta-16,24,26,28-tetraene-2,3,10,14,20-pentaone]
- increase in HI GMT ratios for the heterologous strains [1]: higher in the RAD001 as compared to placebo cohorts
- seroconversion rates for the heterologous strains [1]: higher in the RAD001 as compared to placebo cohorts
- Percent of subjects with seroconversion to influenza 4 weeks after vaccination (B/Brisbane/60/2008; [7]): 27%
- Percent of subjects with seroconversion to influenza 4 weeks after vaccination (B/Brisbane/60/2008; [8]): 22%
- Percent of subjects with seroconversion to influenza 4 weeks after vaccination (B/Brisbane/60/2008; [9]): 19%
- Percent of subjects with seroconversion to influenza 4 weeks after vaccination (B/Brisbane/60/2008; [10]): 40* %
- Percent of subjects with seroconversion to influenza 4 weeks after vaccination (B/Brisbane/60/2008; [11]): 33%
- Percent of subjects with seroconversion to influenza 4 weeks after vaccination (B/Brisbane/60/2008; [12]): 28%
- GMT ratio, B (B/Brisbane/60/2008; RAD001 5 mg weekly, N = 49): 2.2
- GMT ratio, B (B/Brisbane/60/2008; RAD001 20 mg weekly, N = 49): 2.1
- Percent of subjects with seroconversion to influenza 4 weeks after vaccination (H3N2 A/Victoria/210/2009; [7]): 27%
- Percent of subjects with seroconversion to influenza 4 weeks after vaccination (H3N2 A/Victoria/210/2009; [8]): 24%
- Percent of subjects with seroconversion to influenza 4 weeks after vaccination (H3N2 A/Victoria/210/2009; [9]): 25%
- Percent of subjects with seroconversion to influenza 4 weeks after vaccination (H3N2 A/Victoria/210/2009; [10]): 64%
- Percent of subjects with seroconversion to influenza 4 weeks after vaccination (H3N2 A/Victoria/210/2009; [11]): 53%
- Percent of subjects with seroconversion to influenza 4 weeks after vaccination (H3N2 A/Victoria/210/2009; [12]): 71%
- GMT ratio, A/H3N2 (H3N2 A/Victoria/210/2009; RAD001 5 mg weekly, N = 49): 2.0
- GMT ratio, A/H3N2 (H3N2 A/Victoria/210/2009; RAD001 20 mg weekly, N = 49): 2.1
- Percent of subjects with seroconversion to influenza 4 weeks after vaccination [2, 7]: 27%
- Percent of subjects with seroconversion to influenza 4 weeks after vaccination [2, 8]: 27%
- Percent of subjects with seroconversion to influenza 4 weeks after vaccination [2, 9]: 17%
- Percent of subjects with seroconversion to influenza 4 weeks after vaccination [2, 10]: 42%
- Percent of subjects with seroconversion to influenza 4 weeks after vaccination [2, 11]: 45%
- Percent of subjects with seroconversion to influenza 4 weeks after vaccination [2, 12]: 36%
- GMT ratio, A/H1N1 ([2]; RAD001 5 mg weekly, N = 49): 2.5
- GMT ratio, A/H1N1 ([2]; RAD001 20 mg weekly, N = 49): 1.8
- percentage of PD-1 positive CD4 and CD8 cells compared to placebo cohorts (PD-1; in vivo): lower in the RAD001 as compared to placebo cohorts
- decrease in PD-1 positive CD4 T cells compared to placebo (PD-1; week 6, pooled cohort (n=84)): 30.2%
- decrease in PD-1 positive CD8 T cells compared to placebo (PD-1; week 6, pooled cohort (n=84)): 37.4%
- decrease in PD-1 positive CD4 T cells compared to placebo (PD-1; week 12, pooled cohort): 32.7%
- decrease in PD-1 positive CD8 T cells compared to placebo (PD-1; week 12, pooled cohort): 41.4%
- change in PD-1-positive CD8 T cells compared to placebo (PD-1; week 12, 0.5 mg/Day, 5 mg/Week and 20 mg/Week cohorts): −43.3-−38.5%
- energy and exercise ability [3]: increased energy and exercise ability as compared to placebo
- primary endpoint (≥1.2-fold GMT increase relative to placebo in 2 of 3 strains) ([4]; 0.5 mg daily or 5 mg weekly): met the GMT primary endpoint
- primary endpoint (≥1.2-fold GMT increase relative to placebo in 2 of 3 strains) ([4]; 20 mg weekly): but not higher dose (20 mg weekly) cohort met the primary endpoint
- increase in titers in subjects with low baseline influenza titers (≤1:40) ([4]; compared with the ITT population): greater RAD001-associated increase in titers
- RAD001 concentration versus increase in titer ([4]; concentration 1 hour post dose after 4 weeks): inverse exposure/response relationship
- trough level ([5]; 10 mg daily oncology dosing regimen): approximately 20 ng/ml
- trough level ([5]; 0.75-1.5 mg bid transplant dosing regimen): approximately 3 ng/ml

B1: M5: human anti-mesothelin scFv SEQ ID NO: 43; full CAR SEQ ID NO: 67 (protein)
scFv: QVQLVQSGAEVEKPGASVKVSCKASGYTFTDYYMHWVRQAPGQGLEWMGWINPNSGGTNYAQKFQGRVTMTRDTSISTAYMELSRLRSDDTAVYYCASGWDFDYWGQGTLVTVSSGGGGSGGGGSGGGGSGGGGSDIVMTQSPSSLSASVGDRVTITCRASQSIRYYLSWYQQKPGKAPKLLIYTASILQNGVPSRFSGSGSGTDFTLTISSLQPEDFATYYCLQTYTTPDFGPGTKVEIK
- % Monomer (SEC) [6]: 82%
